How the values were obtained:
hair papilla cells = test: Hair papilla cell proliferation test by two-dimensional culture (Example 5); assay type: cell-based, C57BL/6N mouse; conditions: final concentration 0.1 wt %, cultured for 3 days; FIG. 18
Text: Hair papilla cells transmit new hair growth signals to hair matrix cells via signaling substances to activate hair matrix cells, thereby controlling processes of new hair growth and hair elongation. Accordingly, the hair shaft growth promoting activity and the like of test substances can be evaluated from a proliferation rate of hair papilla cells. In this Example, the skin of the whisker region was taken from a C57BL/6N mouse and hair papillae were harvested from isolated whisker follicles under a stereo microscope. Six hair papillae were fixed to the bottom surface of a 60 mm-plastic petri dish (from Sumitomo Bakelite Co., Ltd.), and the primary culture was performed at 37° C. in the presence of 5% CO2 by using a hair papilla cell culture medium in which 2% FCS (fetal calf serum), 0.6% ITT (insulin-transferrin-triiodothyronine mixture), 1% BPE (bovine pituitary extract), and 0.6% Cyp (cyproterone solution) were added to a PCGM base medium. Afterwards, the medium was replaced every 2 to 3 days and subculturing was repeated about every two weeks. In this experiment, hair papilla cells at passage 3 or less were used. […] The number of cells after culturing for 3 days was counted by using a hemocytometer, and proliferation rates in test solution A and the test solution B were calculated relative to 100% for a proliferation rate in the negative control as 100%.

[1] = tested on: hair papilla cell spheroids; test: Hair papilla cell proliferation test by three-dimensional culture (Example 6); assay type: cell-based, C57BL/6N mouse; conditions: final concentrations 0.05 wt %, 0.1 wt %, and 1 wt %, cultured for 3 days; FIG. 19
Experimental: In this Example, hair papilla cells prepared in a similar manner to Example 5 were seeded in a 96-well U-bottom microplate for cell culture (from Sumitomo Bakelite Co., Ltd.) at 6,000 cells/well and centrifuged with a plate centrifuge at room temperature and at a rotating speed of 1,000 rpm for 1 minute to yield three-dimensional hair papilla cell spheroids. The spheroids were cultured for 3 days by using each of test solutions A1 to A3 that were hair papilla cell culture media to which D-chiro-inositol dissolved in PBS was added at a final concentration of 0.05 wt %, 0.1 wt %, or 1 wt %; test solutions B1 to B3 that were hair papilla cell culture media to which myo-inositol dissolved in PBS was added at a final concentration of 0.05 wt %, 0.1 wt %, or 1 wt %; and a negative control that was a hair papilla cell culture medium to which PBS alone was added. The spheroids after culturing for 3 days were imaged by using a VHX2000 digital microscope (Keyence Corporation), and the area of the spheroids was calculated by using a digital microscope analysis tool. By calculating a spheroid area increase rate in the test solutions A1 to A3 and B1 to B3, relative to an area increase rate in the negative control as 100%, the proliferation of hair papilla cells in conditions further close to in vivo condition was quantified.

C57BL/6N mice = test: Hair shaft diameter of regrown body hair after hair pull-out (Example 2); assay type: in vivo; conditions: 1 wt % in 50% ethanol, once/day 100 μl, day 21 after the application; FIG. 15, P<0.01
Text: In C57BL6/N mice, it is known that when body hair of the back is pulled out, hair cycles in the pulled-out region are forced to shift to the […], and as a result, the hair cycles in the pulled-out region are synchronized. Therefore, only hair in the anagen phase becomes observable by decreasing variations in hair cycles. Approximately 7 days after hair is pulled out, as a sign of the anagen phase, skin color changing into gray is observed as melanocytes in hair follicles start synthesizing melanin, in addition to growth of pigmented hair. Further, approximately 10 days after hair is pulled out, new hair growth is observed in the pulled-out region. […] Accordingly, hair growth activity can be evaluated from a viewpoint of an increase in hair shaft diameter by measuring the hair shaft diameter of body hair grown in the pulled-out region approximately 21 days after hair is pulled out. […]
The application was performed for two groups (test solution-applied group and negative control group (50% ethanol-applied group)), where each group consisted of six mice. […] About 20 hair shafts were collected from each mouse, and the hair shaft diameter was measured for 10 hair shafts randomly selected from 120 hair shafts in total collected from 6 mice of each group. […]

[2] = tested on: crab-eating macaque (Macaca fascicularis); test: New hair growth test in monkey (Example 4); assay type: in vivo; conditions: 1 wt % in 50% ethanol, 8 weeks
Text: A crab-eating macaque (Macaca fascicularis) is a monkey (class: Mammalia, order: Primates, family: Cercopithecidae, genus: Macaca) that has many similarities to humans, such as the morphology of the temporomandibular joint, and is frequently employed as a laboratory animal for morphological studies and medication studies due to its easy breeding and rearing. The crab-eating macaque is known for the replacement of the body hair in a six-month cycle in a year. Among aged female monkeys that had babies repeatedly and aged male monkeys of low social status, individuals with observed symptoms of hair thinning or sparse hair emerge with low frequency. […] In this Example, to an aged crab-eating macaque (19 years of age, male) having sparse body hair of the head, a test solution A in which D-chiro-inositol (from Wako Pure Chemical Industries Ltd.) was dissolved in 50% ethanol at a concentration of 1 wt % and a test solution B in which myo-inositol was dissolved in 50% ethanol at a concentration of 1 wt % were applied every day to about 4 cm^2-sparse hair regions (2 cm×2 cm) in both left and right sides across the median line of the head of the macaque. The application (once/day, 150 μl) was performed over 8 weeks, and 50% ethanol was applied as a negative control. At the end of 8 weeks, hair shafts in the applied regions were cut with hair clippers while leaving 2 to 3 mm from pores toward the outside of the body, and the total number of hair protruded from the pores in the applied regions was counted. A new hair growth rate was calculated as an increase rate in the number of hair at the end of 8 weeks, relative to the number of hair protruded from pores in the same regions before the application at the start of the test as 100%.

For OC1C(O)C(O)C(O)C(O)C1O [D-chiro-inositol], the “Hair papilla cell proliferation rate vs negative control” value (hair papilla cells) was “increased significantly”, the “Hair papilla cell spheroid area vs negative control” value [1] was “increased significantly” and the “Hair shaft diameter vs negative control group” value (C57BL/6N mice) was “significantly larger”. For the same compound, the “Hair shaft thickness in applied region vs test solution B and negative control” value ([2]; data not shown) was “remarkably thicker” and the “New hair growth rate” value ([2]; once/day 150 μl, sparse hair region of head, number of hair before application = 100%) was 175.9%.
